# Test results published in patent publication US20210106550A1, “COMPOSITIONS FOR PREVENTING OR TREATING COGNITIVE IMPAIRMENT-RELATED DISEASE COMPRISING MUMEFURAL” (KOREA INSTITUTE OF ORIENTAL MEDICINE, priority 2018, published 2021).
# How the values were obtained:
# Format in all cases: in vivo, Wistar rats
# [1] = test system: dementia-mimic rats; assay: water maze test in dementia-mimic animal model
# Method: (§1) Specifically, 12-week-old Wister rats (350 g to 380 g) were used for the experiments. After obtaining the experimental animals, appearance was visually inspected and then normal symptoms were observed during a 7-day acclimation period. Healthy animals were selected therefrom and assigned to groups by a random method according to body weight ranges, and then experiments were performed. During the acclimation and experiment, a constant breeding environment was maintained under the conditions of a temperature of 23±3° C., a relative humidity of 50±10%, a ventilation frequency of 12 times to 16 times per hour, a 12-hour light-dark cycle (light on at 7:00, light off at 19:00), and an intensity of illumination of 150 Lx to 300 Lx. Experiments were performed using sterilized instruments, and the rats were allowed free access to tap water and a solid feed (PMI nutrition, USA) for 24 hours.
# In order to construct a vascular dementia-mimic animal model, chronic cerebral hypoperfusion was induced by bilateral common carotid artery occlusion (2VO, hereinafter referred to as “brain damage (BCCA0)”) (Wakita et al., 1994). The rats were anesthetized with 4% isoflurane, and the anesthesia was maintained by 1.5% isoflurane during the operation. The central neck was incised to expose the bilateral common carotid artery carefully so as not to cause damage to the vagal nerve. Ligation was performed twice with No. 3 silk, thereby constructing an animal model in which dementia was induced by brain damage.
# After 21 days from the BCCA0 operation, the Wistar rats were orally administered with mumefural for 42 days. The rats were divided into 5 groups listed in Table 1 below, and controls were orally administered with saline. Different concentrations of mumefural were set in the oral administration as low concentration (20 mg/kg), medium concentration (40 mg/kg), and high concentration (80 mg/kg).
# In order to investigate effects of mumefural on enhancing spatial memory in the dementia-mimic animal model, a water maze test was performed after administering mumefural in the same manner as in Example 1 above.
# Specifically, a circular water tank (diameter: 180 cm, height: 58 cm) was filled with water at a temperature of 26±2° C. up to 2 cm above a marked platform, screen walls were set up on all sides of the water tank to prevent light from coming through, and a pigment was added thereto to make the water opaque. In addition, labels were attached to given positions (diameter: 12 cm, height: 33.5 cm) of the screen walls to give clues for the rats to search for the marked platform. Spatial memory training was performed […] for 8 days every morning (from 9:00 a.m.) once per day 8 times in total. Time taken for the rats to find the hidden platform and escape latency thereof were measured and regarded as markers of memory, and reduced time of every group was compared every day. Thereafter, a water maze test was performed after 8 days from the training. In this test, time taken for the rats to first find the hidden platform was measured and used as a marker of memory. That is, a shorter time is regarded as more improved recognition ability.
# [2] = test system: myelin basic protein (MBP); assay: immunohistostaining of MBP protein (degraded myelin) in white matter and hippocampus; settings: compared with the negative control, FIGS. 9A, 9B
# Method: Specifically, 12-week-old Wister rats (350 g to 380 g) were used for the experiments. After obtaining the experimental animals, appearance was visually inspected and then normal symptoms were observed during a 7-day acclimation period. Healthy animals were selected therefrom and assigned to groups by a random method according to body weight ranges, and then experiments were performed. […]
# In order to investigate the effects on normalization of degraded myelin in the dementia-mimic animal model, mumefural was administered in the same manner as in Example 1 above, and then degradation degrees of oligodendrocytes was analyzed in the hippocampus, fornix, medial septum, corpus callosum, and fimbria hippocampi.
# Specifically, the brain was excised from each of the dementia-mimic rats after administration of mumefural was completed and sectioned into slices with a thickness of 40 μm. Subsequently, oligodendrocytes in the hippocampus, white matter fornix, medial septum, corpus callosum, and fimbria hippocampi were detected using myelin basic protein (MBP) that is expressed in the myelin sheath of axons by oligodendrocytes. The slices were stained by immunohistostaining using anti-MBP antibody as a primary antibody and horse anti-mouse antibody as a secondary antibody, and anti-MBP positive cell responses were detected.
# [3] = test system: PSD-95 and synaptophysin-1 proteins; assay: western blot of synaptic markers in hippocampus; settings: compared with the negative control; FIGS. 11A, 11B
# Method: as §1, with “Experiments were performed using sterilized instruments, and the rats were allowed free access to tap water and a solid feed (PMI nutrition, USA) for 24 hours.” left out
# In order to investigate effects of mumefural on normalization of synaptic markers in the dementia-mimic animal model, mumefural was administered in the same manner as in Example 1, and then expression levels of PSD-95 and synaptophysin-1 proteins in the hippocampus were analyzed.
# Specifically, the hippocampus was excised from each of the dementia-mimic rats after administration of mumefural was completed, and the proteins were extracted therefrom. Expression levels of the PSD-95 and synaptophysin-1 proteins were analyzed by western blotting. β-Actin was used as a loading control.
# [4] = test system: microglia; assay: immunohistostaining of lba-1 (microglia) in hippocampus and white matter; settings: compared with the negative control
# Method: as §1, with “hours. […]” for “hours.”
# In order to investigate effects of mumefural on normalization of damaged hippocampus and corpus callosum of white matter in the dementia-mimic animal model, mumefural was administered in the same manner as in Example 1, and then microglia and astrocytes were detected in the hippocampus and white matter to identify gliosis. […]
smiles,measurement,setting,value
O=Cc1ccc(COC(=O)CC(O)(CC(=O)O)C(=O)O)o1 (stereo not shown) [mumefural],latency to find the hidden platform vs normal control,"[1]; BCCAo rats, 20 mg/kg, 40 mg/kg, and 80 mg/kg oral, compared with normal control, FIG. 1",high latency similar to that of the normal control
same,time to first arrive at the hidden platform vs normal control,"[1]; BCCAo rats, 40 mg/kg and 80 mg/kg oral, compared with normal control, FIG. 2",short time similar to that of the normal control
same,time to first arrive at the hidden platform,"[1]; BCCAo rats, oral mumefural 42 days, compared to the negative control, FIG. 2",reduced
same,latency to find the hidden platform (escape latency),"[1]; BCCAo rats, oral mumefural 42 days, compared with the negative control (saline), FIG. 1",increased
same,average swim speeds,"[1]; among the groups (20, 40, 80 mg/kg, controls), FIG. 3",no difference
same,myelin degradation (MBP immunohistostaining),[2],decreased
same,expression level of PSD-95 protein in hippocampus,[3],increased
same,expression level of synaptophysin-1 protein in hippocampus,[3],increased
same,numbers of microglia (lba-1 positive cells) in the hippocampus,"[4]; FIGS. 15A, 15B",significantly decreased
same,numbers of microglia (lba-1 positive cells) in the white matter,"[4]; FIGS. 15C, 15D",significantly decreased
